From ChEMBL document CHEMBL5331081, “Discovery of cysteine-targeting covalent histone methyltransferase inhibitors” (Eur J Med Chem, 2023)
Blank lines part the entries; values can stand above or below the compound they belong to.

Assays:
[1] = system: PBMC; assay: Anticancer activity against mouse PBMC cells harboring NUP98-NSD1 fusion protein assessed as cell growth inhibition measured after 3 days by MTT assay; type: functional; conditions: 72 h, time 3 day
[2] = system: PBMC; assay: Anticancer activity against mouse PBMC cells harboring NUP98-NSD1 fusion protein assessed as cell growth inhibition measured after 7 days by MTT assay; type: functional; conditions: 168 h, time 7 day
[3] = Reduction in H3K9me2 level in human MDA-MB-231 cells incubated for 48 hrs by ChIP assay; type: functional, cell-based; conditions: MDA-MB-231, 48 h
[4] = system: A549; assay: Anticancer activity against human A549 cells assessed as cell growth inhibition measured after 48 hrs by CCK-8 assay; type: functional
[5] = system: MDA-MB-231; assay: Anticancer activity against human MDA-MB-231 cells assessed as cell growth inhibition measured after 48 hrs by CCK-8 assay; type: functional
[6] = system: MCF7; assay: Anticancer activity against human MCF7 cells assessed as cell growth inhibition measured after 48 hrs by CCK-8 assay; type: functional
[7] = system: NCI-H1299; assay: Anticancer activity against human NCI-H1299 cells assessed as cell growth inhibition measured after 48 hrs by CCK-8 assay; type: functional
[8] = Selectivity index, ratio of GI50 for human MV4-11 cells harboring MLL-AF4 fusion protein to ratio of GI50 for human HL-60 cells; type: functional
[9] = system: HL-60; assay: Anticancer activity against human HL-60 cells assessed as cell growth inhibition; type: functional
[10] = system: MV4-11; assay: Anticancer activity against human MV4-11 cells assessed as cell growth inhibition; type: functional
[11] = biological target: Histone-lysine N-methyltransferase EZH2 (Homo sapiens, UniProt Q15910); assay: Inhibition of EZH2 (unknown origin)
[12] = biological target: Menin/Histone-lysine N-methyltransferase MLL (Homo sapiens, UniProt O00255+Q03164); assay: Inhibition of menin (unknown origin)/MLL (unknown origin) protein-protein interaction by fluorescence polarization assay
[13] = in vivo; conditions: CD-1, mouse, po, 100 mg/kg
[14] = Anticancer activity against human MOLM16 cells assessed as cell growth inhibition measured after 7 days by WST-8 assay; type: functional, MOLM-16; conditions: MOLM16, 168 h, time 7 day
[15] = system: MV4-11; assay: Anticancer activity against human MV4-11 cells harboring MLL-AF4 fusion protein assessed as cell growth inhibition measured after 7 days by WST-8 assay; type: functional; conditions: MV4-11, 168 h, pooled result: one value given for 6 cell lines, strains, targets or settings, time 7 day
[16] = system: SKM-1; assay: Anticancer activity against human SKM-1 cells assessed as cell growth inhibition measured after 7 days by WST-8 assay; type: functional; conditions: SKM-1, 168 h, time 7 day
[17] = system: K562; assay: Anticancer activity against human K562 cells assessed as cell growth inhibition measured after 7 days by WST-8 assay; type: functional; conditions: K562, 168 h, time 7 day
[18] = system: HL-60; assay: Anticancer activity against human HL-60 cells assessed as cell growth inhibition measured after 7 days by WST-8 assay; type: functional; conditions: HL-60, 168 h, time 7 day

Menin/Histone-lysine N-methyltransferase MLL, sequence (O00255 whole entry): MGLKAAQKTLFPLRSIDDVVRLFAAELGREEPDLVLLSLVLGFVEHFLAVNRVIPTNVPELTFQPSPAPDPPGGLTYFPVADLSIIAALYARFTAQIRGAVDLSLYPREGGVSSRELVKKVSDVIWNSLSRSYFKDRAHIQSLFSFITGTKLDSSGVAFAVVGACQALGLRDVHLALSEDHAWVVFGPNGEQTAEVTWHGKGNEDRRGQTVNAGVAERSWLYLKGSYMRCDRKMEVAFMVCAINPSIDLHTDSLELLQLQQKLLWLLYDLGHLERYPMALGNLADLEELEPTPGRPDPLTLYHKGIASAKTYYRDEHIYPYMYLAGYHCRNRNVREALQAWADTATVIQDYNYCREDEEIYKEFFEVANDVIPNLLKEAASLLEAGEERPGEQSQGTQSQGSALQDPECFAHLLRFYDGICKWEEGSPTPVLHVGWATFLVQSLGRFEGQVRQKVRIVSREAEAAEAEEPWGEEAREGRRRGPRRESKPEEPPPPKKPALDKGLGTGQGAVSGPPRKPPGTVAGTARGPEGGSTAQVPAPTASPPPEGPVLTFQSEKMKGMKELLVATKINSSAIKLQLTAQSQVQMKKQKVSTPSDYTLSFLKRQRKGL
Menin/Histone-lysine N-methyltransferase MLL, sequence (Q03164 1-2718 limits assumed): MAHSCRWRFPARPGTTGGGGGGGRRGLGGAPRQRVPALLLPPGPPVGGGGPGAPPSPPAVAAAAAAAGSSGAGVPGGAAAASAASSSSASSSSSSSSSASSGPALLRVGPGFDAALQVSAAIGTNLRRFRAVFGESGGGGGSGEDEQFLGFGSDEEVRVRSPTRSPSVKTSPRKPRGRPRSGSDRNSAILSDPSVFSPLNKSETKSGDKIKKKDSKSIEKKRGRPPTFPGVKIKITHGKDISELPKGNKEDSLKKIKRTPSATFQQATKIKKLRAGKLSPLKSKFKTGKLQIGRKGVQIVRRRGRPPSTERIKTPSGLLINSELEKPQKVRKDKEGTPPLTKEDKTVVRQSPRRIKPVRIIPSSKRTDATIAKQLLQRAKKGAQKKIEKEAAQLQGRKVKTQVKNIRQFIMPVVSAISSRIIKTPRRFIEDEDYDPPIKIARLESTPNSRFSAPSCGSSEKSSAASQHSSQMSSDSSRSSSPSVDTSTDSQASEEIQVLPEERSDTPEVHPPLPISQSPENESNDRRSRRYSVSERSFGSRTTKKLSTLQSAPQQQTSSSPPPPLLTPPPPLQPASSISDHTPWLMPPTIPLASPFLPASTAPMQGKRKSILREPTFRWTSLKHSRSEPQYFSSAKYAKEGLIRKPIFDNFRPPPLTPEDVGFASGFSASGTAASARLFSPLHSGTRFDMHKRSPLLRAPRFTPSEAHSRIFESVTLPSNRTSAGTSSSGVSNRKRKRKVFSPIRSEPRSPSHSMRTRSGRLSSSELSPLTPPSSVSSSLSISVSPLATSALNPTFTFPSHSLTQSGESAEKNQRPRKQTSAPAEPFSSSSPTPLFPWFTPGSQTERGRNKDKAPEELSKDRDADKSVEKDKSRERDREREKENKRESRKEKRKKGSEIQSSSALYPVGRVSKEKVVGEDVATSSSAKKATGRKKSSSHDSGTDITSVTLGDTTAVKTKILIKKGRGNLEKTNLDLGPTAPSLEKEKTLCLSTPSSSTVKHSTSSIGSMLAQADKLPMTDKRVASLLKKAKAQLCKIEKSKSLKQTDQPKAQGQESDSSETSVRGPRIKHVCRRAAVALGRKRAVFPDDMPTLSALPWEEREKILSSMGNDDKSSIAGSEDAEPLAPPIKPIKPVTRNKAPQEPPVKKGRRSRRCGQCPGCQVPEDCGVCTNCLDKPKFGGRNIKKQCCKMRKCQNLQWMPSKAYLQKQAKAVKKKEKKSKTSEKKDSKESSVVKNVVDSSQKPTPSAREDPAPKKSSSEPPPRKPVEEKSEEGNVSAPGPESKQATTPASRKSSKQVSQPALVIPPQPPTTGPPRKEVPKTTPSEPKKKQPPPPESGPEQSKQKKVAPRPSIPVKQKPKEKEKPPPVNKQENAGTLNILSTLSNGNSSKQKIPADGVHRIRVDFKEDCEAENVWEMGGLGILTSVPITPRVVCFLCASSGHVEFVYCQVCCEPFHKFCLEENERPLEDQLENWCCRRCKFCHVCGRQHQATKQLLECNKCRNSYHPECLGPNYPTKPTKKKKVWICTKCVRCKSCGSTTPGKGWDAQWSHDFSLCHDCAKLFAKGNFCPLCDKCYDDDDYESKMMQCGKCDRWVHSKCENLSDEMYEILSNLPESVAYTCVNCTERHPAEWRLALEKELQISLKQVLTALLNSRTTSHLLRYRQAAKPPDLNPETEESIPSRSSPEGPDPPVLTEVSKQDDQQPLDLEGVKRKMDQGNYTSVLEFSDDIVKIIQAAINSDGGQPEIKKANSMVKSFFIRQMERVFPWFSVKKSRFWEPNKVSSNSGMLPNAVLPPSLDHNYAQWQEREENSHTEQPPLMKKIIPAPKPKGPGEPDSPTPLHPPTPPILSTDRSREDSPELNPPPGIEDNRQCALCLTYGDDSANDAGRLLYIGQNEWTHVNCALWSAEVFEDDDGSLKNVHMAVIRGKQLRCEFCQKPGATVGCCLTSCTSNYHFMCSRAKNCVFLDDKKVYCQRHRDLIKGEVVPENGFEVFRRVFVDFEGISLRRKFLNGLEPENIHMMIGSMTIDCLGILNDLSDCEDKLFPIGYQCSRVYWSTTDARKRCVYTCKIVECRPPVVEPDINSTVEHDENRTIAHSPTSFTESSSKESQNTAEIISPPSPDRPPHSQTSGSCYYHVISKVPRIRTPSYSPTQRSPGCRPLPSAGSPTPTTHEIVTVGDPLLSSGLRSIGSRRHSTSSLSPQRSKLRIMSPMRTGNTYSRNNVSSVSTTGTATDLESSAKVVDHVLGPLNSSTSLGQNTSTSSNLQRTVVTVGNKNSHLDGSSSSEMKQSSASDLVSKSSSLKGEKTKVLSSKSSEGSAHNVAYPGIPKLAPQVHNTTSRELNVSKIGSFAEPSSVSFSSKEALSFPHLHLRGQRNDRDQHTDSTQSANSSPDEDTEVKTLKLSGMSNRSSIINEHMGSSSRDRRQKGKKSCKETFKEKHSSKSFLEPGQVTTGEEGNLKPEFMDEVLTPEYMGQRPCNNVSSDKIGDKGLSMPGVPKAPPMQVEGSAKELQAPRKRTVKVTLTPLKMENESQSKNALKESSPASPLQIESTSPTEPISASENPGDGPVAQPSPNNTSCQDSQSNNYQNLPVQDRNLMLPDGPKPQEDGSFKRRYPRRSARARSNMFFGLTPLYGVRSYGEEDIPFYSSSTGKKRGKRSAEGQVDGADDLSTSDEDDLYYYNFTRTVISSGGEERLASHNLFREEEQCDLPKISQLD
Menin/Histone-lysine N-methyltransferase MLL, sequence (Q03164 2719-3969 limits assumed): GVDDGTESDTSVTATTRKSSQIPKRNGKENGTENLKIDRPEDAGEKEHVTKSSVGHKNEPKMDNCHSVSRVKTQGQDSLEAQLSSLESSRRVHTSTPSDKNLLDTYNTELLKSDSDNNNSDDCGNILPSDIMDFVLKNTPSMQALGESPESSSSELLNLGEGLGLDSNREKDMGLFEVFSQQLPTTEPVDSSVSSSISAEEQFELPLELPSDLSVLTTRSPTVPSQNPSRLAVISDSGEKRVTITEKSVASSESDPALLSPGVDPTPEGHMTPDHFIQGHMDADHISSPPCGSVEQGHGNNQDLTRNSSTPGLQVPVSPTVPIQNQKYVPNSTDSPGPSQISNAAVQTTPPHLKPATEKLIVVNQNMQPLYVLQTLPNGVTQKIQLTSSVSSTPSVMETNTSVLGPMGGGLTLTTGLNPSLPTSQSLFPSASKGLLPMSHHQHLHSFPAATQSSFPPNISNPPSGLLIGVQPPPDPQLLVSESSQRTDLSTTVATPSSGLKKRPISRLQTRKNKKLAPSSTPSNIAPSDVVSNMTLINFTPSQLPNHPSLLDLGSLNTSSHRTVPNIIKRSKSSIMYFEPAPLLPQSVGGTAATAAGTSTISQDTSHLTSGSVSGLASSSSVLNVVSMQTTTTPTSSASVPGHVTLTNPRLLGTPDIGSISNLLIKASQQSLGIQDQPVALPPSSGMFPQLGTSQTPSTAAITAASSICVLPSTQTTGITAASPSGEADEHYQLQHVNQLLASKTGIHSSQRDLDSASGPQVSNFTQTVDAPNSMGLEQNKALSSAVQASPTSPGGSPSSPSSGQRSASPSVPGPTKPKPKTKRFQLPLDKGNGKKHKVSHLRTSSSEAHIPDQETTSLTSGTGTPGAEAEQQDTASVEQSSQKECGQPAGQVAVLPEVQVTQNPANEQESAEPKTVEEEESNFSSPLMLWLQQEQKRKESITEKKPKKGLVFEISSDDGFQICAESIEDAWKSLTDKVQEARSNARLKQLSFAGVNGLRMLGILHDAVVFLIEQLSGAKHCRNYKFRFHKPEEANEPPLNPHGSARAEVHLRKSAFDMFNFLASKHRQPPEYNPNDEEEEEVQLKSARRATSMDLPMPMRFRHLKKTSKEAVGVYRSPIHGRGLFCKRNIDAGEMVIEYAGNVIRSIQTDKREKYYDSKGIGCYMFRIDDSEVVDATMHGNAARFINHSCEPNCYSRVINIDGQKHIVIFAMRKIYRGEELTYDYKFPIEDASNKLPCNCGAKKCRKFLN

Compound: CC1CN1c1cc(O)c2nc(N)sc2c1 (stereo unspecified)
- GI50 [1]: 1300 nM
- GI50 [2]: 870 nM

- IC50 [3]: 500 nM
Compound: COc1cc2nc(N3CCCN(C)CC3)nc(NC3CCN(Cc4ccccc4)CC3)c2cc1OC

- GI50 [4]: 702 nM
- GI50 [5]: 597 nM
- GI50 [6]: 413 nM
- GI50 [7]: 684 nM
Compound: O=C(CCl)Nc1ccc(S(=O)(=O)c2ccc(NC(=O)CCl)cc2)cc1

- GI50 [9]: 3200 nM
- GI50 [10]: 6 nM
Compound: C=CC(=O)N1CC(S(=O)(=O)c2ccc(N3CC(CN4CCC([C@@](C#N)(c5cccc(F)c5)[C@H]5CCC[C@@H]5NC(=O)OC)CC4)C3)cc2)C1
- RatioGI50 [8]: >500

- IC50 [3]: 81 nM
Compound: COc1cc2c(NC3CCN(C(C)C)CC3)nc(C3CCCCC3)nc2cc1OCCCN1CCCC1

- IC50 [11]: 47 nM
Compound: C=CC(=O)Nc1cc(-c2ccc(N3CCNCC3)cc2)cc(C(=O)NCc2c(CC)cc(C)[nH]c2=O)c1C

- IC50 [12]: 7 nM
- GI50 [10]: 210 nM
Compound: COC(=O)N[C@H]1CCC[C@@H]1[C@](C#N)(c1cccc(F)c1)C1CCN(CC2CN(c3ccc(S(=O)(=O)C4CCC4)cc3)C2)CC1

Compound: CC1(C)CN=C(N2CCN(c3ncnc4sc5c(c34)CCCC5)CC2)S1
- bioavailability [13]: 77%

- IC50 [12]: 3 nM
- GI50 [15]: 2.3 nM
- GI50 [16]: 900 nM
- GI50 [17]: 900 nM
- GI50 [18]: 900 nM
Compound: COC(=O)N[C@H]1CCC[C@@H]1[C@](C#N)(c1cccc(F)c1)C1CCN(CC2CN(c3ccc(S(=O)(=O)C4CN(C(=O)/C=C/CN(C)C)C4)cc3)C2)CC1
- GI50 [14]: 900 nM
